Measured values published in publication PMC11277004, “Di- and Triselenoesters—Promising Drug Candidates for the Future Therapy of Triple-Negative Breast Cancer” (International Journal of Molecular Sciences, 2024).

Tests used:
Assay type in all cases: cell-based, human
[1] = system: MCF-10A normal breast epithelial cells; assay: Apoptosis induction, annexin V-FITC/PI flow cytometry, MCF-10A; details: especially at 1 µM, 24 h
Protocol: (§1) The FITC Annexin V Apoptosis Detection Kit II (BD Pharmingen, San Diego, CA, USA) and a flow cytometer (BD FACSCanto II, BD Biosciences Systems, San Jose, CA, USA) were used in this evaluation. The assay was performed according to the manufacturer’s instructions. Flow cytometer calibration was performed by preparing two controls—a positive and a negative control. […] The negative control was cells that were not treated with any of the proapoptotic agents. First, in the cells treated with the tested compounds as well as the controls, the medium was removed, and the cells were washed twice with cold PBS. Subsequently, the cells were resuspended in the binding buffer included in the kit at a concentration of 1 × 10^6 cells/mL. From each sample, 100 µL of cell suspension was taken and transferred to test tubes, to which 5 µL each of FITC annexin V and propidium iodide (PI) were then added. The contents of the test tubes were gently vortexed and incubated for 15 min at room temperature, protected from light. After the required time, the contents of the test tubes were made up to 500 µL with binding buffer and immediately analyzed in a flow cytometer (10,000 events measured). After the flow cytometer readout, the results were analyzed using the FACSDiva 6.0 software (BD Biosciences Systems, San Jose, CA, USA). […]

[2] = system: breast cancer cells (MCF-7 and MDA-MB-231); assay: Apoptosis induction, summary statements
Protocol: as §1

[3] = Viability (MTT) and DNA biosynthesis, summary statements over the tested cell lines; details: human; MTT, 24 h; range over the tested cell lines; read-out: IC50, cytotoxic activity (range over cell lines)
Protocol: The MTT assay was used to determine the cytotoxic effects of the compounds in the study on MCF-7 and MDA-MB-231 breast cancer cells as well as MCF-10A normal human breast epithelial cells based on Carmichael’s method. All cultured cell lines were treated with varied concentrations of the tested compounds in the medium (0.5–5 µM) and incubated for 24 h in an incubator providing optimal conditions for cell culture growth (37 °C temperature, 5% CO2, and 90–95% humidity) in 6-well plates (baseline seeding density: 5 × 10^5 cells/well). After this time, the medium was removed, and the cell monolayer was washed with warm phosphate-buffered saline (PBS) without calcium and magnesium. In the next step, PBS and MTT solution in PBS (5 mg/mL) were added to each well to obtain a final MTT concentration of 0.5 mg/mL, and then the cells were incubated for 4 h (37 °C temperature, 5% CO2, 90–95% humidity). After the incubation period, the contents of each well were removed, 1 mL of DMSO was added to dissolve the formazan, and then the plate with the added DMSO was mixed for 5–10 min on a microplate shaker (Boeco, Hamburg, Germany). Then, 10 µL of Sorensen’s glycine buffer (a solution of 0.1 M glycine and 0.1 M sodium chloride adjusted to pH 10.5 with 0.1 M sodium hydroxide) was added. The absorbance of the obtained solution was immediately measured at a wavelength of λ = 570 nm using a Thermo Scientific Evolution 201 UV–VIS spectrophotometer (Thermo Fisher Scientific, Waltham, MA, USA). The absorbance result obtained in the control cells (without the addition of the tested compounds) was taken as 100%, while the viability of cells incubated with the tested compounds was presented as a percentage of the control value.
The study of the antiproliferative properties (intensity of [^3H]-thymidine incorporation into cell DNA) of the tested derivatives against tested cell lines (MCF-7, MDA-MB-231, MCF-10A) was performed after 24 h incubation with varied concentrations of the tested compounds in the medium (0.5–5 µM) in 6-well plates (baseline seeding density: 5 × 10^5 cells/well). After 24 h the medium was removed, the cells were washed with PBS (Corning, Kennebunk, ME, USA), and a fresh medium was added. […] Radioactivity was measured using the Scintillation Counter 1900 TR, TRI-CARB (Packard, Perkin Elmer, Inc., San Jose, CA, USA). The intensity of DNA biosynthesis in the analyzed cells was expressed in terms of dpm/well. The result of the radioactivity measurement in the control cells (without the addition of tested compounds) was taken as 100%, while the values of cells incubated with the tested compounds were presented as a percentage of the control value.

[4] = system: MCF-7 and MDA-MB-231 breast cancer cells; assay: Autophagy induction, summary statement over cell lines; details: vs EDAG-8; 0.5 and 1 µM, 24 h
Protocol: The effects of the novel selenoesters and a reference compound (cisplatin) at concentrations of 0.5 and 1 µM (after 24 h) on the activation of the autophagy process in MCF-7, MDA-MB-231, and MCF-10A cells were evaluated utilizing the Autophagy Assay kit, Red (ImmunoChemistry Technologies, Bloomington, MN, USA) via flow cytometry (flow cytometer from BD FACSCanto II, BD Biosciences Systems, San Jose, CA, USA). The entire assay was performed according to the manufacturer’s instructions. After drug treatment, unfixed cells were washed and resuspended in PBS at a concentration of 5 × 10^5 cells/mL. Then, 490 µL each of the cell suspension was taken, transferred to test tubes, and 10 µL of Autophagy Probe, Red solution (previously diluted 1:5 in PBS) was added and incubated (30 min, 37 °C, in the dark). After incubation, the cells were washed and resuspended in cellular assay buffer, before finally adding fixative at a ratio of 1:5 (v/v). After this step, the prepared samples were immediately measured using a flow cytometer (BD FACSCanto II; 10,000 events measured), and the percentage of cells with an occurring autophagy process was calculated using the FACSDiva 6.0 software (both from BD Biosciences Systems, San Jose, CA, USA). The equipment calibration was performed using the BD Cytometer Setup and Tracking Beads (BD Biosciences, San Diego, CA, USA).

SMILES | necrotic cells (in words) [1] | development of necrosis in the breast cancer cell lines (in words) [2] | IC50 at 24 h [3] [nM] | fold weaker pro-autophagic activity compared to the most active derivative [4]
CC(=O)C[Se]C(=O)c1cc(C(=O)[Se]CC(C)=O)cc(C(=O)[Se]CC(C)=O)c1 [EDAG-8, Se,Se,Se-tris-(2-oxopropyl) benzene-1,3,5-tris-(carboxyselenoate)] | increase in the number of necrotic cells | did not affect the development of necrosis | 410 to 710 | –
CC(=O)C[Se]C(=O)c1ccc(C(=O)[Se]CC(C)=O)cc1 [EDAG-1, Se,Se-bis(2-oxopropyl) benzene-1,4-bis(carboselenoate)] | – | did not affect the development of necrosis | 410 to 710 | approximately 2 fold
